Patent US20180369203A1, “METHODS OF TREATING CANCER BY ADMINISTERING A MEK INHIBITOR IN COMBINATION WITH A PROTEASOME INHIBITOR” (The Jackson Laboratory, priority 2015, published 2018)

Test system: GR-GFP
Test: GR-GFP protein stability in HEK293T cells (immunoblotting)
Type: cell-based
Settings: 100 nM Bortezomib, 4 hrs
Description: This figure is related to FIG. 4. (A) HSF1 stabilizes GR-GFP proteins. Both GR-GFP and HA-Ub-K48 plasmids were co-transfected with LacZ or FLAG-HSF1 plasmids into HEK293T cells stably expressing scramble or HSF1-targeting shRNAs. HA-Ub-K48 plasmids encode a mutant ubiquitin that can be conjugated to protein substrates only via lysine 48. GFP-GR proteins were precipitated and ubiquitination was detected by anti-HA immunoblotting. (B) HSF1 maintains cellular chaperoning capacity. Denatured firefly luciferases were incubated with proteins extracted from HEK293T cells stably expressing scramble or HSF1-targeting shRNAs that were transfected with LacZ or FLAG-HSF1 plasmids (mean±SD, n=5, ANOVA). […] Levels of GFP and GR-GFP proteins were detected by immunoblotting. […] Following treatments with 20 μM U0126, 20 nM AZD6244, or 100 nM Bortezomib for 4 hrs, the chymotrypsin-like, trypsin-like, and caspase-like proteasomal activities in A2058 cells (D) and HEK293T cells (E) were measured in vitro using 25 μM Z-LLL-AMC, Boc-LRR-AMC, and Z-LLE-AMC substrates respectively (mean±SD, n=3, ANOVA). […] Lys48-specific protein ubiquitination was detected by immunoblotting in both detergent-soluble and -insoluble fractions. […] Lys48-specific protein ubiquitination was detected by immunoblotting in both detergent-soluble and -insoluble fractions of HEK293T cells that stably expressed scramble or MEK1/2-targeting shRNAs. […]

SMILES: CC(C)C[C@H](NC(=O)[C@H](Cc1ccccc1)NC(=O)c1cnccn1)B(O)O [Bortezomib, bortezomib]
- GR-GFP protein level: caused GR-GFP accumulation
